Assay results from article PMC3199943, “Screening the MayBridge Rule of 3 Fragment Library for Compounds That Interact with the Trypanosoma brucei myo-Inositol-3-Phosphate Synthase and/or Show Trypanocidal Activity” (Molecular Biology International, 2011).
Where a name gives a salt, the structure may show the parent alone. Read-outs that look alike come from different tables or passages of the source.

Assays:
HeLa cells = test: cells; conditions: for viability at 500 µM: 65 h
Procedure, shortened: (§1)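 Viability by Alamar Blue (5 h) after ~65 h drug treatment; seeding density 2 × 10^4 cells/well in DMEM supplemented with 10% FCS and 2 mM L-Glutamine.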

A549 cells = test: Cytotoxicity against A549 cells, Alamar Blue; assay type: cell-based; conditions: for viability at 500 µM: Homo sapiens, A549, 65 h
Procedure, shortened: as §1

[1] = Supplementary Table 1, compound 0.5 mM, percentage of controls, mean ± SD (n=3) or SE (n=2)
[2] = Supplementary Table 1, compound 0.5 mM, percentage of controls (n=1)
[3] = Homo sapiens, HeLa, read-out: HeLa Cells Alamar Blue

| SMILES | viability at 500 µM (HeLa cells; [3]) [%] | viability at 500 µM (A549 cells; [2]) [%] | further results |
| --- | --- | --- | --- |
| c1ccc(-c2cn3c(n2)SCC3)cc1 [compound 639, 6‐phenyl‐2,3‐dihydroimidazo[2,1‐b][1,3]thiazole] |  |  | HeLa Cells Alamar Blue (HeLa cells; [1]): 61 ± 9.8 percentage of controls; A549 Cells Alamar Blue (A549 cells; [2]): 109.1 percentage of controls |
| Cl.Cl.NCCc1c[nH]cn1 [compound 475, 2‐(1H‐imidazol‐4‐yl)ethylamine dihydrochloride] |  |  | HeLa Cells Alamar Blue (HeLa cells): 95.9 ± 6.6; A549 Cells Alamar Blue (A549 cells): 80.3 |
| CN1CCN(C)C(CO)C1 (stereo not drawn) [compound 154, (1,4‐dimethyl‐2‐piperazinyl)methanol] | 96.9 ± 6.4 | 117 |  |
| Cc1ccc(C(=O)O)cc1Cl [compound 351, 3‐chloro‐4‐methylbenzoic acid] | 88.2 ± 17.9 | 112 |  |
| CC1(C)Cc2cccc(CO)c2O1 [compound 434, (2,2‐dimethyl‐2,3‐dihydro‐1‐benzofuran‐7‐yl)methanol] |  |  | HeLa Cells Alamar Blue (HeLa cells; [1]): 80.2 ± 12 percentage of controls; A549 Cells Alamar Blue (A549 cells; [2]): 51.1 percentage of controls |
| OCc1cccc(-c2cncnc2)c1 [compound 504, (3‐pyrimidin‐5‐ylphenyl)methanol] | 88.7 ± 9.9 | 88.2 |  |
| OCc1ccccc1Oc1ccccc1 [compound 621, (2‐phenoxyphenyl)methanol] | 74.9 ± 14.8 | 73.7 |  |
| Cc1ccc2sc(CO)cc2c1 [compound 442, 5‐Methylbenzo[b]thiophene‐2‐methanol] | 71.3 ± 3.5 | 53.7 |  |
| O=C(O)c1ccc(-c2cccnc2)cc1 [compound 612, 4‐pyrid‐3‐ylbenzoic acid] |  | 74.2 | viability at 500 µM (HeLa cells; Homo sapiens, HeLa, read-out: HeLa Cells Alamar Blue, Supplementary Table 1, compound 0.5 mM, percentage of controls, mean ± SD (n=3) or SE (n=2)): 77.2 ± 5.7% |
| O=C(O)CSCc1ccccc1 [compound 465, 2‐(benzylthio)acetic acid] | 99 ± 9.3 | 67.9 |  |
| CCOC(=O)CCc1ccc(O)cc1 [compound 585, ethyl 3‐(4‐hydroxyphenyl)propanoate] | 63.1 ± 3.9 | 61.7 |  |
| OCc1ccc(C(F)(F)F)o1 [compound 314, [5‐(trifluoromethyl)‐2‐furyl]methanol] | 114 ± 8.2 | 76.9 |  |
| OCc1ccc(CN2CCCCC2)cc1 [compound 669, [4‐(piperidin‐1‐ylmethyl)phenyl]methanol] | 93.2 ± 12.6 | 121 |  |
| NC(=O)c1cccs1 [compound 80, thiophene‐2‐carboxamide] | 106 ± 17.5 | 90.3 |  |
| Cc1nc(-c2cccc(N)c2)cs1 [compound 546, 3‐(2‐methyl‐1,3‐thiazol‐4‐yl)aniline] | 68.5 ± 8.2 | 61.9 |  |
| OCc1scc2c1OCCO2 [compound 361, 2,3‐dihydrothieno[3,4‐b][1,4]dioxin‐5‐ylmethanol] |  |  | HeLa Cells Alamar Blue (HeLa cells; [1]): 68.5 ± 12.9 percentage of controls; A549 Cells Alamar Blue (A549 cells; [2]): 93.7 percentage of controls |
| CNCc1cccc(-c2nccs2)c1 [compound 653, N‐methyl‐3‐(1,3‐thiazol‐2‐yl)benzylamine] | 93.3 ± 2.7 | 99.6 |  |
| OCc1ccc(-c2ccncc2)cc1 [compound 488, (4‐pyrid‐4‐ylphenyl)methanol] | 65.5 ± 17.5 | 133 |  |
| OCc1cc2ccccc2o1 [compound 167, 1‐benzofuran‐2‐ylmethanol] | 84.9 ± 19.3 | 78.2 |  |
| Oc1cccc(N2CCOCC2)c1 [compound 447, 3‐morpholinophenol] | 77.8 ± 11.8 | 62.8 |  |
| OCc1nc2ccccc2s1 [compound 312, 1,3‐benzothiazol‐2‐ylmethanol] | 80.7 ± 16.2 | 64.4 |  |
| Cc1nc(CC(=O)O)cs1 [compound 243, 2‐(2‐methyl‐1,3‐thiazol‐4‐yl)acetic acid] | 99.5 ± 1.1 | 113 |  |
| ON=C1CN2CCC1CC2 [compound 416, quinuclidin‐3‐one oxime hydrochloride] | 107 ± 9.6 | 109 |  |
| Cc1cc(N)ccc1C(C)C.Cl [compound 497, 4‐isopropyl‐3‐methylaniline hydrochloride] |  |  | HeLa Cells Alamar Blue (HeLa cells; [1]): 90.1 ± 2.1 percentage of controls; A549 Cells Alamar Blue (A549 cells; [2]): 115.7 percentage of controls |
| Cc1nc(-c2ccccc2)ncc1CO [compound 623, (4‐methyl‐2‐phenyl‐5‐pyrimidinyl)methanol] |  |  | HeLa Cells Alamar Blue (HeLa cells; [1]): 66.5 ± 11.6 percentage of controls; A549 Cells Alamar Blue (A549 cells; [2]): 85.4 percentage of controls |
| C#Cc1ccc(OCCCC)cc1 [compound 388, 1‐butoxy‐4‐eth‐1‐ynylbenzene] | 107 ± 8 | 114 |  |
| O=C(O)c1ccccn1 [compound 58, 2‐pyridinecarboxylic acid] | 87.3 ± 6.1 | 97.9 |  |
| NCc1ccc(-n2cccc2)cc1 [compound 365, 4‐(1H‐pyrrol‐1‐yl)benzylamine] | 50.9 ± 11 | 94.4 | CC50 (HeLa cells; Homo sapiens, HeLa, read-out: HeLa ED50): 71.8 ± 3.7 µM |

| SMILES | viability at 500 µM (HeLa cells; [3]) [%] | viability at 500 µM (A549 cells; [2]) [%] | further results |
| --- | --- | --- | --- |
| OCc1cccc2c1OCCO2 [compound 322, 2,3‐dihydro‐1,4‐benzodioxin‐5‐ylmethanol] |  |  | HeLa Cells Alamar Blue (HeLa cells; [1]): 100.4 ± 14.9 percentage of controls; A549 Cells Alamar Blue (A549 cells; [2]): 96.4 percentage of controls |
| Nc1ccccc1N1CCOCC1 [compound 436, 2‐morpholinoaniline] | 79.1 ± 5.8 | 56.4 |  |
| OCc1ccc2c(c1)OCCO2 [compound 320, 2,3‐dihydro‐1,4‐benzodioxin‐6‐ylmethanol] |  |  | HeLa Cells Alamar Blue (HeLa cells; [1]): 111.9 ± 16.4 percentage of controls; A549 Cells Alamar Blue (A549 cells; [2]): 78.8 percentage of controls |
| OCCc1cccnc1 [compound 63, 2‐(3‐pyridyl)ethan‐1‐ol] | 105 ± 13.1 | 76.9 |  |
| NS(=O)(=O)c1ccc(F)cc1F [compound 576, 2,4‐difluorobenzenesulfonamide] | 10.7 ± 9.3 | 12.9 |  |
| OCCc1coc2ccccc12 [compound 284, 2‐benzo[b]furan‐3‐ylethanol] | 58.7 ± 17.4 | 63.3 |  |
| N#Cc1ccc(-c2ccco2)nc1 [compound 344, 6‐(2‐furyl)nicotinonitrile] | 48.9 ± 5 | 104 |  |
| CC1(C)CC(=O)CC(C)(C)N1 [compound 228, 2,2,6,6‐tetramethyltetrahydro‐4(1H)‐pyridinone] |  |  | HeLa Cells Alamar Blue (HeLa cells; [1]): 101.3 ± 5.4 percentage of controls; A549 Cells Alamar Blue (A549 cells; [2]): 61.9 percentage of controls |
| CCOC(=O)Cc1ccc(N)cc1 [compound 446, ethyl 2‐(4‐aminophenyl)acetate] | 80.1 ± 14.8 | 63.2 |  |
| Nc1ccc(Oc2ccccc2)nc1 [compound 507, 6‐phenoxy‐3‐pyridinamine] | 103 ± 15.4 | 71.8 |  |
| Cn1nc(-c2ccccc2)cc1N [compound 376, 1‐methyl‐3‐phenyl‐1H‐pyrazol‐5‐amine] | 82.6 ± 4.6 | 64.7 |  |
| NC(=S)CSc1ccccc1 [compound 472, 2‐(phenylthio)ethanethioamide] | 76.5 ± 11.2 | 86 |  |
| OCc1ccc(Oc2ccccn2)cc1 [compound 629, [4‐(pyrid‐2‐yloxy)phenyl]methanol] | 84.1 ± 9.9 | 96.1 |  |
| CC(=O)Nc1ccc2c(c1)CCCC2=O [compound 644, N1‐(5‐oxo‐5,6,7,8‐tetrahydronaphthalen‐2‐yl)acetamide] |  |  | HeLa Cells Alamar Blue (HeLa cells; [1]): 99.2 ± 7.5 percentage of controls; A549 Cells Alamar Blue (A549 cells; [2]): 93.5 percentage of controls |
| Cc1ccc(CO)cc1C [compound 119, (3,4‐dimethylphenyl)methanol] | 84.7 ± 15.3 | 124 |  |
| CC(=O)Nc1ccccc1F [compound 212, N1‐(2‐fluorophenyl)acetamide] | 80.6 ± 6.6 | 65.4 |  |
| OCc1ccnc(N2CCCC2)c1 [compound 438, (2‐pyrrolidin‐1‐ylpyrid‐4‐yl)methanol] | 103 ± 14.9 | 71.9 |  |
| COc1ccccc1C1CCNCC1 [compound 560, 4‐(2‐methoxyphenyl)piperidine] | 20.2 ± 2.8 | 63.7 |  |
| CSc1ccc(Cl)cc1N [compound 382, 5‐chloro‐2‐(methylthio)aniline] | 110 ± 13.3 | 60.7 |  |
| Cn1ccc2cc(N)ccc21 [compound 158, 1‐methyl‐1H‐indol‐5‐amine] | 12.5 ± 9.1 | 59.3 |  |
| N#CN1CCCC1 [compound 3, pyrrolidine‐1‐carbonitrile] | 88.5 ± 1.3 | 115 |  |
| NCc1ccc2c(c1)OCCO2 [compound 306, 2,3‐dihydro‐1,4‐benzodioxin‐6‐ylmethylamine] |  |  | HeLa Cells Alamar Blue (HeLa cells; [1]): 109.2 ± 5.6 percentage of controls; A549 Cells Alamar Blue (A549 cells; [2]): 72.7 percentage of controls |
| OCc1ccc(N2CCCC2)nc1 [compound 437, [6‐(1‐pyrrolidinyl)‐3‐pyridinyl]methanol] | 9.3 ± 4.8 | 44.3 |  |
| O=C1CCC(C(F)(F)F)CC1 [compound 317, 4‐(trifluoromethyl)cyclohexan‐1‐one] | 111 ± 7.2 | 90.5 |  |
| Nc1ccccc1N1CCCC1 [compound 289, 2‐pyrrolidin‐1‐ylaniline] | 11.4 ± 9.5 | 23.8 |  |
| OCCc1ccc2c(c1)OCO2 [compound 321, 2‐(1,3‐benzodioxol‐5‐yl)ethanol] | 109 ± 5.9 | 138 |  |
| Nc1ccc(-c2cccnc2)cc1 [compound 347, 4‐pyridin‐3‐ylaniline] | 79.3 ± 2.8 | 113 |  |
